Reference: ChEMBL document CHEMBL1157802, “5-Functionalized indazoles as glucocorticoid receptor agonists” (Bioorg Med Chem Lett, 2010)

Tests used:
[1] = biological target: Muscarinic acetylcholine receptor M3 (Homo sapiens) (UniProt P20309); experiment: Inhibition of muscarinic M3 receptor at 1 uM
[2] = Inhibition of nicotinic acetylcholine receptor at 1 uM
[3] = biological target: Mu-type opioid receptor (Homo sapiens) (UniProt P35372); experiment: Inhibition of mu opioid receptor at 1 uM
[4] = Inhibition of ATP-sensitive potassium channel at 1 uM
[5] = biological target: hERG (KCNH2) (Homo sapiens, UniProt Q12809); experiment: Inhibition of human ERG at 1 uM
hERG (KCNH2), sequence (Q12809 whole entry): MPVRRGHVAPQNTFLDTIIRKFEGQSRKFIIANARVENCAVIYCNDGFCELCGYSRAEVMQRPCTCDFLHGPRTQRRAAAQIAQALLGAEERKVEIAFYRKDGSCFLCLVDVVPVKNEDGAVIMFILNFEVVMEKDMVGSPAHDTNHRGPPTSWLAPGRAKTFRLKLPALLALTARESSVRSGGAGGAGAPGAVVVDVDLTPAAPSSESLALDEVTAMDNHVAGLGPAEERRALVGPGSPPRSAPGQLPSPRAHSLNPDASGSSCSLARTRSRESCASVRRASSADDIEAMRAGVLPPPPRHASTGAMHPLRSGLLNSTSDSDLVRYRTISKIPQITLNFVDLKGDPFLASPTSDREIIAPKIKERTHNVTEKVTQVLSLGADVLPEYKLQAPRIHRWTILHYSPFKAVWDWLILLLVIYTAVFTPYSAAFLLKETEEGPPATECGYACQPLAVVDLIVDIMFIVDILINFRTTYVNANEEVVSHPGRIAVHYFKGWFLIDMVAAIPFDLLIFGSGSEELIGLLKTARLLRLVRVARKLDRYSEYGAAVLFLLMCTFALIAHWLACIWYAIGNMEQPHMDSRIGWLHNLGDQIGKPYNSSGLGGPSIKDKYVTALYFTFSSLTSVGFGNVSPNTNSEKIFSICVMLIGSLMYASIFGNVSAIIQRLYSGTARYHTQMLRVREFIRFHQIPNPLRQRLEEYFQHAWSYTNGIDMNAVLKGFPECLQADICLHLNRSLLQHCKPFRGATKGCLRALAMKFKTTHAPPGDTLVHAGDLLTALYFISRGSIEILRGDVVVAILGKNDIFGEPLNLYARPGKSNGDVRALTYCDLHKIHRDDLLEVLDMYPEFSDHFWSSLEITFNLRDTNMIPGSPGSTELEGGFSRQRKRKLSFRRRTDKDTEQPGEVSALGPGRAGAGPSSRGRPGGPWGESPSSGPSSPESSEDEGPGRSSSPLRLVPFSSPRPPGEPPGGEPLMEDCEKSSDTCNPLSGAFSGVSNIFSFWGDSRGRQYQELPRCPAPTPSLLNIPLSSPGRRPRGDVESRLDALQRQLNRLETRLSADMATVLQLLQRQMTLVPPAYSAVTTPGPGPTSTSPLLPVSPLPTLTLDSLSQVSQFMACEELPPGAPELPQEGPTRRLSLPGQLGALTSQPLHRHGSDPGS

[6] = biological target: Prostaglandin E2 receptor EP4 subtype (Homo sapiens) (UniProt P35408); experiment: Inhibition of prostanoid EP4 receptor at 1 uM
[7] = Inhibition of rolipram binding site at 1 uM
[8] = biological target: Sigma non-opioid intracellular receptor 1 (Homo sapiens) (UniProt Q99720); experiment: Inhibition of sigma 1 receptor at 1 uM
Sigma non-opioid intracellular receptor 1 (Homo sapiens), sequence (Q99720 whole entry): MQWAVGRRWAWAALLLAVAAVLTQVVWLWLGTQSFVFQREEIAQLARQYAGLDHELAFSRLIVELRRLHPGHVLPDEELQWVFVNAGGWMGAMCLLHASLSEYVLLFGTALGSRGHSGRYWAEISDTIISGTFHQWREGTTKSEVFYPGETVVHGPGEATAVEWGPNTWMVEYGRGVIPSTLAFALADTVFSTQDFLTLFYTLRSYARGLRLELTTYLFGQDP

[9] = Inhibition of sodium channel site 2 at 1 uM
[10] = biological target: Sodium-dependent noradrenaline transporter (Homo sapiens) (UniProt P23975); experiment: Inhibition of norepinephrine transporter at 1 uM
Sodium-dependent noradrenaline transporter (Homo sapiens), sequence (P23975 whole entry): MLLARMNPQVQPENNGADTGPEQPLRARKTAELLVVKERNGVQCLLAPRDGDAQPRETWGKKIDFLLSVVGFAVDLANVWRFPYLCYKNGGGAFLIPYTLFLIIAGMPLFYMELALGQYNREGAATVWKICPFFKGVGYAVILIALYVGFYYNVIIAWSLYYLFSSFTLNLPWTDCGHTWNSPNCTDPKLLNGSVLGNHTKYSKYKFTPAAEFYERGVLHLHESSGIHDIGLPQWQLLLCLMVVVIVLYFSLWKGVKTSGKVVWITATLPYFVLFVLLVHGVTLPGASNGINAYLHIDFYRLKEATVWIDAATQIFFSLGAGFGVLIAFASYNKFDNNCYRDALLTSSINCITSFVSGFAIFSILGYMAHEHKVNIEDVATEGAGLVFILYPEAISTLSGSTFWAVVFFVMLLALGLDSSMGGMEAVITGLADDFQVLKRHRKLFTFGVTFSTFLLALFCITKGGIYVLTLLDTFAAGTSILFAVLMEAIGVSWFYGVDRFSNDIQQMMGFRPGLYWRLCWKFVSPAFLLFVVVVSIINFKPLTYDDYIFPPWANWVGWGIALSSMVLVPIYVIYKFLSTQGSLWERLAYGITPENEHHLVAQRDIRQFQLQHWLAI

[11] = Inhibition of phorbol ester site of PKC at 1 uM
[12] = biological target: T1, Glucocorticoid receptor (Homo sapiens, UniProt P04150); experiment: Agonist activity at glucocorticoid receptor in human fibroblast assessed as inhibition of IL-1-beta-induced IL6 production treated 1 hr before IL1-beta challenge measured after 24 hrs by transrepression assay; type: functional
T1 sequence (P04150 whole entry): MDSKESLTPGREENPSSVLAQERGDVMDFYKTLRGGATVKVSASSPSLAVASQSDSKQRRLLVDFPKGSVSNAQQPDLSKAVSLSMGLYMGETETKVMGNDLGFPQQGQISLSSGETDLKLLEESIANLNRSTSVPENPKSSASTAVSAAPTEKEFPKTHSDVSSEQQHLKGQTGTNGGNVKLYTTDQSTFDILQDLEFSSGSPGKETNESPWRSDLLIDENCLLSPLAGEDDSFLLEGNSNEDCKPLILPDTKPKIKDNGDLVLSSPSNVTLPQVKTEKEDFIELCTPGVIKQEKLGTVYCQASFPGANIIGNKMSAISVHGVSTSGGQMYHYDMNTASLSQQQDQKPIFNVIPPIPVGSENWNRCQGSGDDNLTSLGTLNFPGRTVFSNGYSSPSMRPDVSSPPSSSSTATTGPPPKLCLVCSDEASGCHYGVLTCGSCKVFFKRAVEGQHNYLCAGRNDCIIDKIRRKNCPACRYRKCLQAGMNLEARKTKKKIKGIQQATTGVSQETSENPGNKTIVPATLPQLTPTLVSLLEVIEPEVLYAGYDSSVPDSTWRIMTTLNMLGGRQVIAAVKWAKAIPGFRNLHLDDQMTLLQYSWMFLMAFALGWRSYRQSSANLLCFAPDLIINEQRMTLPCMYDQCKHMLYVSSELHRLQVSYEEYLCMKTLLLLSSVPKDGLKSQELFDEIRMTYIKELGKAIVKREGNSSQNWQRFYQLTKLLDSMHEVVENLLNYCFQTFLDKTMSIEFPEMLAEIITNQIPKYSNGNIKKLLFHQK

[13] = biological target: T1, Glucocorticoid receptor; experiment: Agonist activity at glucocorticoid receptor in human MDA-kb2 cells transfected with MMTV-LUC assessed as induction of MMTV-LTR/promoter linked LUC gene by luciferase transactivation assay; type: functional, cell-based; conditions: mda-kb2
[14] = Selectivity for human glucocorticoid receptor over ERalpha
[15] = Selectivity for human glucocorticoid receptor over ERbeta
[16] = Selectivity for human glucocorticoid receptor over androgen receptor
[17] = biological target: Beta-1 adrenergic receptor (Homo sapiens) (UniProt P08588); experiment: Inhibition of adrenergic beta-1 receptor at 1 uM
Beta-1 adrenergic receptor (Homo sapiens), sequence (P08588 whole entry, looked up): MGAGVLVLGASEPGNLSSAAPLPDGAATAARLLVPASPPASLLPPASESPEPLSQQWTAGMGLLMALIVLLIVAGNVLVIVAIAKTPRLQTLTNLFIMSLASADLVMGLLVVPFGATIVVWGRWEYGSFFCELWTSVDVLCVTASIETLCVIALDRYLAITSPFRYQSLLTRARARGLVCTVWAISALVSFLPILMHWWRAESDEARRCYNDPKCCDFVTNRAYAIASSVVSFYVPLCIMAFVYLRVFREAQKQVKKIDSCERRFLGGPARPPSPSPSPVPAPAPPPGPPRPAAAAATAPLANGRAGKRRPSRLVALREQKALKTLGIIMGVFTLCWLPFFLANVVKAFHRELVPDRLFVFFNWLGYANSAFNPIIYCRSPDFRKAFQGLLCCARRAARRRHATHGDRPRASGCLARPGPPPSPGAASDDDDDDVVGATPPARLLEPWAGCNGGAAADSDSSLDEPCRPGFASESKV

[18] = biological target: T2, Adenosine receptor A1 (Homo sapiens) (UniProt P30542); experiment: Inhibition of adenosine A1 receptor at 1 uM
T2 sequence (whole entry): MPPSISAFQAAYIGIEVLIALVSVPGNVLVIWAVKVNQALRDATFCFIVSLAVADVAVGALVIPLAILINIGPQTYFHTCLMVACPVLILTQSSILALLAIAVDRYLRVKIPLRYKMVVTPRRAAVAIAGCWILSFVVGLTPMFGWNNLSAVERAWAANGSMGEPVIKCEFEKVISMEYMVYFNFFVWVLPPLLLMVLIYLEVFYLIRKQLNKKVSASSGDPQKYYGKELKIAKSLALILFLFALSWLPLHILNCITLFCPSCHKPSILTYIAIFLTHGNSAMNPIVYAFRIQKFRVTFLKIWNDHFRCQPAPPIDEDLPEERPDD

[19] = biological target: Adenosine receptor A2a (Homo sapiens) (UniProt P29274); experiment: Inhibition of adenosine A2A receptor at 1 uM
Adenosine receptor A2a (Homo sapiens), sequence (P29274 whole entry): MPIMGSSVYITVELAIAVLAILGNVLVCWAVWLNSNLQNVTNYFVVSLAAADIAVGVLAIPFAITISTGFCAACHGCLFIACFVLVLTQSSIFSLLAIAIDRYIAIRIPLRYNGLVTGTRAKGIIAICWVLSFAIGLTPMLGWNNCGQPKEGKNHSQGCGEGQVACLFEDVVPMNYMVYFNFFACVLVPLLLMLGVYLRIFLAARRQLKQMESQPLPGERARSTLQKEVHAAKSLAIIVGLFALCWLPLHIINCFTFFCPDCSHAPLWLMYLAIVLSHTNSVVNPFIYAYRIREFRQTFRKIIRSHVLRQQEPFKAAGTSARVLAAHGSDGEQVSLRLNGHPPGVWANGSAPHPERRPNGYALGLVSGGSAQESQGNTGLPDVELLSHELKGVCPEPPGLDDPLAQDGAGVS

[20] = biological target: T3, Alpha-2A adrenergic receptor (Homo sapiens) (UniProt P08913); experiment: Inhibition of adrenergic alpha2A receptor at 1 uM
T3 sequence (whole entry): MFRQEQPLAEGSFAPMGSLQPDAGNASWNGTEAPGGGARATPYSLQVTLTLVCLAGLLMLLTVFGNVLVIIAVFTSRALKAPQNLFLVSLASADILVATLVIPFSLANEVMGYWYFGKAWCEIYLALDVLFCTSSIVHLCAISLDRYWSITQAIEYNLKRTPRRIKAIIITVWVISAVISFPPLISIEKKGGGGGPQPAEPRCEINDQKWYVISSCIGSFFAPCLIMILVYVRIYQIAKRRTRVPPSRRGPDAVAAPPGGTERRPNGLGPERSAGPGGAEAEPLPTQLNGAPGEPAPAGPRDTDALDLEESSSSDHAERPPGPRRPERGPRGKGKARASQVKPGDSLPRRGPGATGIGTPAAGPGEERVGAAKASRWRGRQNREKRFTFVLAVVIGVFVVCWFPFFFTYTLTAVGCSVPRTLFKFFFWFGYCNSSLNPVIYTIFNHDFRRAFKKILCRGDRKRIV

[21] = biological target: Beta-2 adrenergic receptor (Homo sapiens) (UniProt P07550); experiment: Inhibition of adrenergic beta2 receptor at 1 uM
Beta-2 adrenergic receptor (Homo sapiens), sequence (P07550 whole entry, looked up): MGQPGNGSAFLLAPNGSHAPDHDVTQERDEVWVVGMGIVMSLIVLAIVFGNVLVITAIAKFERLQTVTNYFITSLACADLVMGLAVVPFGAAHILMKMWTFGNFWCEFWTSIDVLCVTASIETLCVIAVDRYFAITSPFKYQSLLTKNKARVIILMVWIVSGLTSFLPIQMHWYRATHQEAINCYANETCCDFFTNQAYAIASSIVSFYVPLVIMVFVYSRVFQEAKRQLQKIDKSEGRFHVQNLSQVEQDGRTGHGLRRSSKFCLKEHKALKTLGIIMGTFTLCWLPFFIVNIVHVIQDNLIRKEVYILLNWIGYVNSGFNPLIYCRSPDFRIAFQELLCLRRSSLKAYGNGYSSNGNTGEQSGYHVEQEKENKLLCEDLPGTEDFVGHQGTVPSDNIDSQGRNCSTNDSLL

[22] = biological target: D(1A) dopamine receptor (Homo sapiens) (UniProt P21728); experiment: Inhibition of dopamine D1 receptor at 1 uM
D(1A) dopamine receptor (Homo sapiens), sequence (P21728 whole entry): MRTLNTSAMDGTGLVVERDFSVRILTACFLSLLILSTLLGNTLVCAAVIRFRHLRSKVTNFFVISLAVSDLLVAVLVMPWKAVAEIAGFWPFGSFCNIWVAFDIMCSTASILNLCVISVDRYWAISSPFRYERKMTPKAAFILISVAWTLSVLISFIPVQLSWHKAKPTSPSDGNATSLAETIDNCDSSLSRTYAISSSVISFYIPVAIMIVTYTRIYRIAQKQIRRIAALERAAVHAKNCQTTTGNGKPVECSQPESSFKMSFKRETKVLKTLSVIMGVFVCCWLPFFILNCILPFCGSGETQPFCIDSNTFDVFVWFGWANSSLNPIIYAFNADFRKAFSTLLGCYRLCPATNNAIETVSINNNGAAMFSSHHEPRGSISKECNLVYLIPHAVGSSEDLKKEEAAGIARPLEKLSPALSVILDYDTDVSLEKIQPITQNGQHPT

[23] = Inhibition of GABAA receptor agonist site at 1 uM; type: functional
[24] = biological target: T1, Glucocorticoid receptor
Description: Binding affinity to human glucocorticoid receptor by fluorescence polarization competitive binding assay

Muscarinic acetylcholine receptor M3 (Homo sapiens), sequence (P20309 whole entry, looked up): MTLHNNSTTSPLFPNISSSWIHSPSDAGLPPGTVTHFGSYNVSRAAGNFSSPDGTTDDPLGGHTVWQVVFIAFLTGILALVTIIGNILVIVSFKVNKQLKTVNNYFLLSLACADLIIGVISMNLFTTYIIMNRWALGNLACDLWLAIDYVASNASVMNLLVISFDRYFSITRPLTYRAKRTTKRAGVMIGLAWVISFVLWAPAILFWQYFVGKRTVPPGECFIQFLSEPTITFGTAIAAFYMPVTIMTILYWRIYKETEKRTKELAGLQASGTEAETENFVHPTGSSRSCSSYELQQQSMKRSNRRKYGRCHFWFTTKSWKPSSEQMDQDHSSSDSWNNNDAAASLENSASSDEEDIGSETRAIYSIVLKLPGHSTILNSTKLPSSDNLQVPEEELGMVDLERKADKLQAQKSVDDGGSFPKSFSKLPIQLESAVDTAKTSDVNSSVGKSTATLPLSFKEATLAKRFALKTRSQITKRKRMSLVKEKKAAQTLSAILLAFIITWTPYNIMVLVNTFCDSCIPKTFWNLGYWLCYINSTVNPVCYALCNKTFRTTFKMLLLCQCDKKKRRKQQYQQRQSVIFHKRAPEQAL
Mu-type opioid receptor (Homo sapiens), sequence (P35372 whole entry): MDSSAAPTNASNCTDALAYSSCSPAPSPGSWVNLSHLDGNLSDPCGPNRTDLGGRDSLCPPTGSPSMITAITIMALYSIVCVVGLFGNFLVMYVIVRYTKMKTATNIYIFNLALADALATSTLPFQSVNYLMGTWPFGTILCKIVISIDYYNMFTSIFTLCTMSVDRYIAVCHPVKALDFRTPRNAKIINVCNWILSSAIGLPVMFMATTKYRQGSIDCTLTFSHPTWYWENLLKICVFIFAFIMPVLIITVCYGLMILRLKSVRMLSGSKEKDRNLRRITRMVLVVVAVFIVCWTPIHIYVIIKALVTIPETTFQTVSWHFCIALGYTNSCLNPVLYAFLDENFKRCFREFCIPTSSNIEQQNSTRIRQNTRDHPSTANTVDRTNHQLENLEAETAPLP

Row | SMILES | inhibition [1] | inhibition [2] | inhibition [3] | inhibition [4] | inhibition at 1 µM [5] | inhibition [6] | inhibition [7] | inhibition [8] | inhibition [9] | inhibition [10] | inhibition [11] | EC50 [12] | EC50 [13] | Ratio [14] | Ratio [15] | Ratio [16] | inhibition [17] | inhibition [18] | inhibition [19] | inhibition [20] | other results
1 | OC(c1ccnc(Cl)c1)(c1ccc2c(cnn2-c2ccc(F)cc2)c1)C(F)(F)F (single isomer, unassigned; (-)) | < 50% | < 50% | < 50% | < 50% | < 50% | < 50% | < 50% | < 50% | < 50% | < 50% | < 50% | 627 nM | Not Active | > 1000 | > 1000 | > 1000 | < 50% | < 50% | < 50% | < 50% | inhibition [21]: < 50%; inhibition [22]: < 50%; inhibition [23]: < 50%; IC50 [24]: 14 nM
2 | Cc1cc(C(O)(c2ccc3c(cnn3-c3ccc(F)cc3)c2)C(F)(F)F)ccc1F (single isomer, unassigned; (-)) | < 50% | < 50% | < 50% | < 50% | < 50% | < 50% | < 50% | < 50% | < 50% | < 50% | < 50% | 93 nM | Not Active | > 1000 | > 1000 | > 1000 | < 50% | < 50% | < 50% | < 50% | inhibition [21]: < 50%; inhibition [22]: < 50%; inhibition [23]: < 50%; IC50 [24]: 59 nM
